Among the data in the METLIN SMRT retention time set (Domingo-Almenara et al. 2019) are RP-LC retention time values, retold here.

The series is described as follows: gradient 5% acetonitrile 3 min, to 50% in 2 min, to 85% in 15 min, held 3 min, 100 µL/min. The conditions noted are these: column: Zorbax Extend-C18 2.1 x 50 mm; eluents: water / acetonitrile, 0.1% formic acid. The procedure, abridged:
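Retention times of pure standards were taken from adduct peaks that were selected by computer and manually inspected. Over 3 months, mixtures of ~100 molecules were run by HPLC–quadrupole time-of-flight mass spectrometry in positive and negative ionization mode. The Zorbax Extend-C18 column (2.1 × 50 mm, 1.8 μm) ran at 100 μL/min in water and acetonitrile, each containing 0.1% formic acid, with 40 μL dead volume and 900 μL dwell volume.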
In the case of `O=C(Cc1c[nH]c2ncccc12)NCc1cccc(Br)c1`, the RP-LC retention time was 647 s.

`CC(=O)Nc1ccc(-n2cnc(C(=O)NCCC3=CCCCC3)c2)nc1` registered an RP-LC retention time of 739 s.

`CC(C(=O)NCCc1ccco1)n1c(=O)c(C(F)(F)F)nc2ccccc21` (centres undefined): the RP-LC retention time is 698 s.

Regarding `COc1ccccc1-c1nc(Cn2nnc(-c3nc(-c4ccccc4C)no3)c2C)c(C)o1`, the RP-LC retention time stood at 1180 s.

Turning to `COc1cccc(NC(=O)C2CCCCN2S(=O)(=O)c2ccc(F)cc2)c1` (centres undefined), the RP-LC retention time turned out to be 1000 s.

`Cc1ccc(N2CCC(NC(=O)NC(C)C)C2=O)cc1` (centres undefined): the RP-LC retention time was 688 s.

`CCOc1ccc(C(=O)N2CCC3(CC2)NC(=O)c2cc(F)ccc2N3CC)cc1` gave an RP-LC retention time of 836 s.

In turn, `O=C(c1cccc(Nc2c(-c3ccc(Cl)cc3)nc3cnccn23)c1)N1CCOCC1` showed an RP-LC retention time of 719 s.

In the case of `COc1ccc2[nH]cc(CCNC(=O)C34CCC=C3N(C3CCCC3)C(=O)CC4)c2c1` (centres undefined), the RP-LC retention time amounted to 798 s.

`Cc1cc(NC(=O)c2ccc(S(=O)(=O)Nc3ccc4c(c3)OCO4)o2)no1` gave an RP-LC retention time of 737 s.

As for `COc1ccc(CCC(=O)Nc2cnn(-c3ncc(N(C)C)cn3)c2)cc1`, the RP-LC retention time amounted to 737 s.

For the compound `O=C(CSCC(=O)N1CCOCC1)Nc1nc(-c2ccc3c(c2)OCO3)cs1`, the RP-LC retention time was 681 s.

The compound `CCOc1ccc(-n2cc(C(=O)OCc3ccccn3)c3ccccc3c2=O)cc1` yielded an RP-LC retention time of 750 s.

`O=S(=O)(c1cccc(-c2cn3ccccc3n2)c1)N1CCCC1` registered an RP-LC retention time of 607 s.

In turn, `Cc1noc(C2CN(C(=O)Nc3cccc(C)c3C)CC23CCOCC3)n1` (centres undefined) came in with an RP-LC retention time of 715 s.

In turn, `CN(C)S(=O)(=O)c1ccc(NC(=O)Cc2ccc(F)cc2)cc1` registered an RP-LC retention time of 780 s.

For the compound `COC(=O)c1ccc2c(=O)n(-c3cccc(Cl)c3)c(N3CCN(c4ccccn4)CC3)nc2c1`, the RP-LC retention time came to 744 s.

Compound `CCOC(=O)c1noc2ncnc(NCC3CCN(Cc4cccc(F)c4)CC3)c12` came in with an RP-LC retention time of 705 s.

`CCc1ccc2[nH]c3c(c(=O)c2c1)CN(CC(=O)NCc1ccccc1Cl)CC3` had an RP-LC retention time of 633 s.

For `COc1ccc(C(=O)N2CCN(C(=O)c3nnn4c3COC(c3ccc(F)cc3)C4)CC2)cc1F` (centres undefined), the RP-LC retention time came out at 844 s.

`O=C1NC(C(=O)Nc2ccc(F)cc2)Cn2cccc21` (centres undefined): the RP-LC retention time is 666 s.

Consider `Cc1[nH]nc(-c2ccc(S(=O)(=O)N3CCOCC3)o2)c1C`, for which the RP-LC retention time is 707 s.

`CCCNC(=O)N(CC(=O)N1CCc2sccc2C1COc1ccc(C)cc1)CC1CCCO1` (centres undefined) showed an RP-LC retention time of 1000 s.

Compound `CC(C)c1noc(-c2ccnc(-n3cnc(C(=O)NCC4CC4)c3)c2)n1` registered an RP-LC retention time of 879 s.

`Cc1cc(=O)n(CC(=O)Nc2ccc(C(F)(F)F)cc2)c(N2CCOCC2)n1`: the RP-LC retention time was determined as 759 s.

Compound `O=C(Nc1nc(-c2ccncc2)cs1)c1ccc(NS(=O)(=O)c2ccccc2)cc1` gave an RP-LC retention time of 589 s.

Turning to `COC(=O)c1ncn2c1C(=O)N(c1cccc(C)c1C)C(C)(C(=O)NCc1ccccc1)C2` (centres undefined), the RP-LC retention time came out at 708 s.

Regarding `CCCn1cnc2cc(CNC(=O)c3cnccn3)ccc21`, the RP-LC retention time is 578 s.

In turn, `Cc1ccc(NC(=O)Cn2nc(N3CCCC3)c3ccccc3c2=O)cc1` came in with an RP-LC retention time of 938 s.

Take `Cc1nc(C)c(-c2ccc(SCC(=O)N3CCCc4ccccc43)nn2)s1`: the RP-LC retention time was 779 s.

On to `COc1ccc(C2(C(=O)NCc3ccc4c(c3)ncn4C(C)C)CC2)cc1`, for which the RP-LC retention time worked out at 678 s.

For the compound `Cc1cc(C)n(C(=O)COc2ccc(Cl)cc2C)n1`, the RP-LC retention time worked out at 1160 s.

For `CCN1C(=O)c2cccnc2Sc2cc(CNC(=O)c3cccc4[nH]ccc34)ccc21`, the RP-LC retention time is 721 s.

Compound `C[C@H]1CN(C(=O)c2ccc(C#N)cc2)C[C@@H]1c1nc(-c2ccncc2)no1` showed an RP-LC retention time of 717 s.

In turn, `Cc1ccc(-c2nccn3cc(C(=O)O)nc23)cc1` had an RP-LC retention time of 696 s.

As for `Cc1cccc(OCCc2noc(C3CN(Cc4ccc(C)s4)C3)n2)c1`, the RP-LC retention time came to 761 s.

Consider `Cc1ccn2cc(C(=O)NC3CCCC3)nc2c1`, for which the RP-LC retention time came out at 600 s.

In turn, `CC(=O)N1CCC(C(=O)NCc2ccc(-c3nc(-c4cccs4)no3)s2)CC1` had an RP-LC retention time of 731 s.

As to `O=C(CS(=O)Cc1cnn(-c2ccccc2)c1-n1cccc1)N1CCN(C2CCCCC2)CC1` (centres undefined), the RP-LC retention time came to 643 s.

On to `COc1cc2nc(C(=O)N3CCCCC3)cc(Nc3ccc(Br)c(C)c3)c2cc1OC`, for which the RP-LC retention time was determined as 779 s.

On to `COc1ccc(OC)c(C(O)CN2CCN(c3cc(C)ccc3C)CC2)c1` (centres undefined), for which the RP-LC retention time amounted to 758 s.

As for `Cc1ccc2c(Nc3ccc4c(c3)OCCO4)c(C(=O)N3CCCCC3C)cnc2n1` (centres undefined), the RP-LC retention time turned out to be 623 s.

For the compound `COC(=O)c1ccc2c(=O)n(-c3ccc(OC)cc3)c(N3CCN(c4ccccn4)CC3)nc2c1`, the RP-LC retention time was found to be 1290 s.

On to `CCOC(=O)c1nn(-c2ccc(F)cc2)c(=O)c2c(NC(=O)C3CCCCC3)scc12`, for which the RP-LC retention time is 1250 s.

With `O=C(Cc1cccn1-c1cccc(Cl)c1)NCc1ccc(N2CCOCC2)cc1`, the RP-LC retention time was found to be 890 s.

Turning to `COC(=O)c1cc2c(=O)n(Cc3ccc(OC)cc3)ccc2nc1C`, the RP-LC retention time was determined as 836 s.

In turn, `c1ccc(-c2n[nH]c(C3CCCN3)n2)cc1` (centres undefined) had an RP-LC retention time of 546 s.

With `Cc1ccc(F)c2c(=O)c3c([nH]c12)CCN(CC(=O)NC1CCCC1)C3`, the RP-LC retention time is 669 s.

As for `Cc1ccc(CN2CCN(C(=O)C3CCc4nc(N5CCOCC5)ncc4C3)CC2)cc1C` (centres undefined), the RP-LC retention time came to 623 s.

The compound `Cn1nc(C(=O)N2CCCC(C(=O)N3CCCC3)C2)c2c1CCN(C(=O)c1ccccc1Cl)C2` (centres undefined) yielded an RP-LC retention time of 662 s.

Compound `CCCC(CCC)C(=O)Nc1cc(-c2cn3cccnc3n2)ccc1C` returned an RP-LC retention time of 758 s.

Take `COc1ccc(C(=O)NCCc2c[nH]c3ccc(F)cc23)cc1OC`: the RP-LC retention time came to 758 s.

The compound `COc1ccc(NC(=O)c2cnc(-c3ccc(OC)cc3)nc2-c2ccncc2)cc1` returned an RP-LC retention time of 829 s.

Consider `O=C(CCn1nnc2cc(-c3noc(COc4ccccc4)n3)ccc21)N1CCCCCC1`, for which the RP-LC retention time came out at 1000 s.

The compound `Cc1cc(C)c(S(=O)(=O)N2CCC[C@@H]2C(=O)NCCc2csc(C)n2)c(C)c1` showed an RP-LC retention time of 814 s.

Regarding `CCCc1noc(-c2cccnc2N2CCCN(Cc3cc(C)ccc3C)CC2)n1`, the RP-LC retention time was found to be 790 s.

Regarding `COC(=O)c1c(C)[nH]c(C(=O)N2CCC(CC(=O)N3CCOCC3)CC2)c1C`, the RP-LC retention time amounted to 636 s.

The compound `CC1CS(=O)(=O)N(c2ccc(C(=O)N3CCN(c4ccccn4)CC3)c(Cl)c2)C1=O` (centres undefined) yielded an RP-LC retention time of 576 s.

In turn, `CN(C)C[C@@H]1CN(C)C[C@H]1NC(=O)NCc1ccc(OC(F)(F)F)cc1` displayed an RP-LC retention time of 588 s.

The compound `COc1ccc(C(=O)Nc2nc(-c3ccc4c(c3)N(C)C(=O)CO4)c(C)s2)cc1OC` had an RP-LC retention time of 906 s.

Turning to `CCC(C(=O)c1ccccc1)n1c(N2CCOCC2)nc2c1c(=O)n(C)c(=O)n2C` (centres undefined), the RP-LC retention time was 806 s.

As to `COc1ccc(-c2nc3nc(C)cc(C)n3c2Nc2ccc(Cl)cc2)cc1`, the RP-LC retention time stood at 730 s.

`COc1ccc(-c2ccc(=O)n(Cc3nc(-c4ccc(Cl)cc4)no3)n2)cc1` displayed an RP-LC retention time of 1070 s.

Consider `Nc1cc(C2CCN(C(=O)NCc3ccc(F)cc3)CC2)no1`, for which the RP-LC retention time amounted to 671 s.

With `Cc1nn(CC(=O)N2CCCCC2)c(=O)c2c(-n3cccc3)n(-c3ccc(F)cc3)nc12`, the RP-LC retention time amounted to 923 s.

Compound `CCCOc1nc2ccccc2nc1N1CCCC(C(=O)NC(C)c2ccccc2)C1` (centres undefined) yielded an RP-LC retention time of 1230 s.

`Cc1nc(-c2ccccc2)sc1CC(=O)NCCC1=CCCCC1` came in with an RP-LC retention time of 947 s.

The compound `COc1ccc(NC(=O)CSc2nc(N3CCCCC3)nc3ccccc23)cc1` yielded an RP-LC retention time of 695 s.

Turning to `Cc1ccc(-c2nc(-c3ccc(-n4cccn4)nc3)no2)cc1`, the RP-LC retention time was determined as 1330 s.

Take `CCN1c2ccc(C)cc2C(=O)NC12CCN(C(=O)Cc1ccc(C)cc1)CC2`: the RP-LC retention time worked out at 887 s.

Take `CCCNc1cc(N2CCC(CCC(=O)NCc3cc(F)cc(F)c3)CC2)ncn1`: the RP-LC retention time stood at 704 s.

As for `CCc1c(C(=O)OC)ncc2[nH]c3cc(OC)c(OC)cc3c12`, the RP-LC retention time came out at 702 s.

`CC1=C(C(=O)NCCCN2CCN(Cc3ccccc3)CC2)C2(CCCCC2)OC1=O` had an RP-LC retention time of 627 s.

Regarding `O=C1CCc2cc(S(=O)(=O)NCCCc3ccccc3)cc3c2N1CCC3`, the RP-LC retention time is 879 s.

Compound `COC(=O)c1c(NC(C)c2cccc(OC)c2)c2cccc(Cl)c2[nH]c1=O` (centres undefined) returned an RP-LC retention time of 843 s.

For the compound `O=S(=O)(c1cccs1)N1CCc2nc(-c3ccc(F)cc3)ncc2C1`, the RP-LC retention time is 1030 s.

In turn, `Cc1ncc2c(n1)CCN(C(=O)c1cccc(Cl)c1)C2` had an RP-LC retention time of 653 s.

`CC(=O)c1ccc(NC(=O)c2cccc(N3C(=O)NC4CC3(C)Oc3ccccc34)c2)cc1` (centres undefined) had an RP-LC retention time of 815 s.

In turn, `CC1Oc2ccc(-c3csc(NC(=O)c4ccco4)n3)cc2NC1=O` (centres undefined) registered an RP-LC retention time of 783 s.
